From patent US6914045B2, “Glycopeptide antibiotics” (Wyeth Holdings Corporation, priority 2001, dated 2005)
In brackets after ≈: the same amount, converted by molar mass.

Experiments:
Assay in all cases: in vitro antibacterial evaluation, MIC by broth dilution
Format in all cases: cell-based
[1] = test system: Enterococcus sp.; conditions: broth dilution, 18 hours at 35° C.
Procedure: (§1) Methods for in vitro Antibacterial Evaluation (Table 1)
(§2) The minimum inhibitory concentration (MIC), the lowest concentration of the antibiotic which inhibits growth of the test organism, is determined by the broth dilution method using Muller-Hinton II […] (Baltimore Biological Laboratories) following the recommendations of the National Committee for Clinical Laboratory Standards [Methods for dilution antimicrobial susceptibility tests for bacteria that grow aerobically, approved standard M7-A2, National Committee for Clinical Laboratory Standards, Villanova, Pa.].
(§3) An inoculum level of 5×10^5 CFU/mL, and a range of antibiotic concentrations (64-0.06 μg/mL) is used. […] The test organisms include a spectrum of Gram-positive bacteria comprised of Staphylococcus sp., Streptococcus sp. and Enterococcus sp. These organisms include recent clinical isolates that are resistant to methicillin, penicillin and/or vancomycin.

[2] = test system: Streptococcus sp.; conditions: broth dilution, 18 hours at 35° C.
Procedure: as §1, §2, §3

[3] = test system: Staphylococcus sp.; conditions: broth dilution, 18 hours at 35° C.
Procedure: as §1, §2, §3

[4] = test system: Escherichia coli; conditions: 18 hours at 35° C.

MIC Enterococcus avium (GC 4558) [1]: 2 µg/mL (≈ 1.35 µM) | MIC Enterococcus faecalis (ATCC 29212) [1]: 4 µg/mL (≈ 2.7 µM) | MIC Enterococcus faecalis (GC 2242) [1]: 4 µg/mL (≈ 2.7 µM) | MIC Enterococcus faecalis (GC 2691) [1]: 4 µg/mL (≈ 2.7 µM) | MIC Enterococcus faecalis (GC 3059) [1]: 4 µg/mL (≈ 2.7 µM) | MIC Enterococcus faecalis (GC 4552) [1]: 4 µg/mL (≈ 2.7 µM) | MIC Enterococcus faecalis (GC 4553) [1]: 2 µg/mL (≈ 1.35 µM) | MIC Enterococcus faecalis (GC 4554) [1]: 4 µg/mL (≈ 2.7 µM) | MIC Enterococcus faecalis (GC 6189) [1]: 4 µg/mL (≈ 2.7 µM) | MIC Enterococcus faecium (GC 2243) [1]: 2 µg/mL (≈ 1.35 µM) | MIC Enterococcus faecium (GC 4556) [1]: 4 µg/mL (≈ 2.7 µM) | MIC Enterococcus faecium (GC 4557) [1]: 0.5 µg/mL (≈ 0.337 µM) | MIC Enterococcus faecalis (ATCC 29212) ([1]; inoculum 5×10^5 CFU/mL, strain ATCC 29212): 4 µg/mL (≈ 2.7 µM) | MIC Enterococcus faecalis (GC 2242) ([1]; inoculum 5×10^5 CFU/mL, strain GC 2242): 4 µg/mL (≈ 2.7 µM) | MIC Enterococcus faecium (GC 2243) ([1]; inoculum 5×10^5 CFU/mL, strain GC 2243): 2 µg/mL (≈ 1.35 µM) | MIC Enterococcus faecalis (GC 2691) ([1]; inoculum 5×10^5 CFU/mL, strain GC 2691): 4 µg/mL (≈ 2.7 µM) | MIC Enterococcus faecalis (GC 3059) ([1]; inoculum 5×10^5 CFU/mL, strain GC 3059): 4 µg/mL (≈ 2.7 µM) | MIC Enterococcus faecalis (GC 4552) ([1]; inoculum 5×10^5 CFU/mL, strain GC 4552): 4 µg/mL (≈ 2.7 µM) | MIC Enterococcus faecalis (GC 4553) ([1]; inoculum 5×10^5 CFU/mL, strain GC 4553): 2 µg/mL (≈ 1.35 µM) | MIC Enterococcus faecalis (GC 4554) ([1]; inoculum 5×10^5 CFU/mL, strain GC 4554): 4 µg/mL (≈ 2.7 µM) | MIC Enterococcus faecium (GC 4556) ([1]; inoculum 5×10^5 CFU/mL, strain GC 4556): 4 µg/mL (≈ 2.7 µM) | MIC Enterococcus faecium (GC 4557) ([1]; inoculum 5×10^5 CFU/mL, strain GC 4557): 0.5 µg/mL (≈ 0.337 µM) | MIC Enterococcus avium (GC 4558) ([1]; inoculum 5×10^5 CFU/mL, strain GC 4558): 2 µg/mL (≈ 1.35 µM) | MIC Enterococcus faecalis (GC 6189) ([1]; inoculum 5×10^5 CFU/mL, strain GC 6189): 4 µg/mL (≈ 2.7 µM) | MIC Streptococcus agalactiae (GC 4564) [2]: <0.12 µg/mL | MIC Streptococcus pneumoniae (ATCC 6301) [2]: 0.25 µg/mL (≈ 0.169 µM) | MIC Streptococcus pneumoniae (GC 1894) [2]: <0.12 µg/mL | MIC Streptococcus pneumoniae (GC 4565) [2]: 0.25 µg/mL (≈ 0.169 µM) | MIC Streptococcus pyogenes (GC 4563) [2]: 0.25 µg/mL (≈ 0.169 µM) | MIC Streptococcus pneumoniae (ATCC 6301) ([2]; inoculum 5×10^5 CFU/mL, strain ATCC 6301): 0.25 µg/mL (≈ 0.169 µM) | MIC Streptococcus pneumoniae (GC 1894) ([2]; inoculum 5×10^5 CFU/mL, strain GC 1894): <0.12 µg/mL | MIC Streptococcus pyogenes (GC 4563) ([2]; inoculum 5×10^5 CFU/mL, strain GC 4563): 0.25 µg/mL (≈ 0.169 µM) | MIC Streptococcus agalactiae (GC 4564) ([2]; inoculum 5×10^5 CFU/mL, strain GC 4564): <0.12 µg/mL | MIC Streptococcus pneumoniae (GC 4565) ([2]; inoculum 5×10^5 CFU/mL, strain GC 4565): 0.25 µg/mL (≈ 0.169 µM) | MIC Staphylococcus aureus (ATCC 29213) ([3]; strain ATCC 29213): 2 µg/mL (≈ 1.35 µM) | MIC Staphylococcus aureus (GC 1131) ([3]; strain GC 1131): 4 µg/mL (≈ 2.7 µM) | MIC Staphylococcus aureus (GC 3051) ([3]; strain GC 3051): 2 µg/mL (≈ 1.35 µM) | MIC Staphylococcus aureus (GC 3053) ([3]; strain GC 3053): 4 µg/mL (≈ 2.7 µM) | MIC Staphylococcus aureus (GC 4541) ([3]; strain GC 4541): 1 µg/mL (≈ 0.674 µM) | MIC Staphylococcus aureus (GC 4542) ([3]; strain GC 4542): 4 µg/mL (≈ 2.7 µM) | MIC Staphylococcus aureus-SMITH (GC 4543) ([3]; strain GC 4543): 2 µg/mL (≈ 1.35 µM) | MIC Staphylococcus aureus (GC 4544) ([3]; strain GC 4544): 4 µg/mL (≈ 2.7 µM) | MIC Staphylococcus aureus (GC 4545) ([3]; strain GC 4545): 2 µg/mL (≈ 1.35 µM) | MIC Coagulase Negative Staphylococcus (GC 4547) ([3]; strain GC 4547): 2 µg/mL (≈ 1.35 µM) | MIC Coagulase Negative Staphylococcus (GC 4548) ([3]; strain GC 4548): 1 µg/mL (≈ 0.674 µM) | MIC Coagulase Negative Staphylococcus (GC 4549) ([3]; strain GC 4549): 1 µg/mL (≈ 0.674 µM) | MIC Coagulase Negative Staphylococcus (GC 4551) ([3]; strain GC 4551): 2 µg/mL (≈ 1.35 µM) | MIC Escherichia coli (ATCC 25922) [4]: 128 µg/mL (≈ 86.3 µM) | MIC Escherichia coli (GC 4559) [4]: 64 µg/mL (≈ 43.1 µM) | MIC Escherichia coli (GC 4560) [4]: 2 µg/mL (≈ 1.35 µM)
SMILES: CCCCN1CC(C(O)C2NC(=O)C(C(O)C3CNC(=N)N3)NC(=O)C(Cc3ccc(OC4OC(CO)C(OC5OC6COC7(OC6C(O)C5O)C5CC6CC(C5)CC7C6)C(O)C4O)cc3)NC(=O)C(C(C)c3ccccc3)NC(=O)CNC(=O)C(CO)NC2=O)N(C2OC(CO)C(O)C(O)C2O)C1=N (stereo not drawn) [Example 224]
MIC Staphylococcus haemolyticus (GC 4546) ([3]; strain GC 4546): 1 µg/mL (≈ 0.674 µM)
